Assay results taken from US9079866B2, “Flap modulators” (JANSSEN PHARMACEUTICA NV, priority 2013, dated 2015).
Where a name gives a salt, the structure may show the parent alone.

The molecules below were run against human FLAP (Homo sapiens (Human), UniProt P20292) (assay: FLAP binding assay (HTRF format)). Details: human FLAP wild type, HTRF format; average of two plates, duplicates.
Procedure: The ability of the compounds of the present invention to treat a FLAP-mediated disease and/or disorder, or associated symptoms or complications thereof, was determined using the following procedures. Binding assay data represent the average value obtained from two different assay plates, with samples run in duplicate on each plate. Human whole blood assay data represent a single replicate on an assay plate using whole blood from at least one healthy donor.
Data are expressed as a HTRF ratio.

human FLAP, sequence (P20292 whole entry): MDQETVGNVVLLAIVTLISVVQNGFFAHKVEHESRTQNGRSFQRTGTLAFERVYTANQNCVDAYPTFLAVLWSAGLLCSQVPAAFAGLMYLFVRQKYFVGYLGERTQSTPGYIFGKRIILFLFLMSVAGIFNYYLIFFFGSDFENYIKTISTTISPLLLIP

Row | SMILES | Ki [µM]
1 | Nc1cnc(-c2ccc(-c3ccccc3NS(N)(=O)=O)cc2F)cn1 [Example 33, N-[4′-(5-Aminopyrazin-2-yl)-3′-fluorobiphenyl-2-yl]sulfamide] | 0.304
2 | Nc1cnc(S(=O)(=O)c2ccccc2-c2ccc(-c3cnc(N)nc3)c(F)c2)nc1 [Example 339, 5-{2′-[(5-Aminopyrimidin-2-yl)sulfonyl]-3-fluorobiphenyl-4-yl}pyrimidin-2-amine hydrochloride] | 2.5
3 | Nc1ncc(-c2ccc(-c3ccccc3S(=O)(=O)N3CCNCC3)cc2F)cn1 [Example 290, 5-[3-Fluoro-2′-(piperazin-1-ylsulfonyl)biphenyl-4-yl]pyrimidin-2-amine trifluoroacetic acid salt] | 0.94

Same assay, conditions: wild type FLAP, HTRF format

Row | SMILES | Ki [µM]
4 | Nc1ncc(-c2ccc(-c3ccccc3C(=O)N3CC[C@@H](O)C3)cc2F)cn1 [Example 770, (3R)-1-{[4′-(2-Aminopyrimidin-5-yl)-3′-fluorobiphenyl-2-yl]carbonyl}pyrrolidin-3-ol] | > 10
5 | CC(C)(C)C(=O)Nc1ncccc1-c1ccc(-c2cnc(N)nc2)c(F)c1 [Example 800, N-{3-[4-(2-Aminopyrimidin-5-yl)-3-fluorophenyl]pyridin-2-yl}-2,2-dimethylpropanamide] | > 10
6 | CC(C)(CN)S(=O)(=O)c1ccccc1-c1ccc(-c2cnc(N)cn2)c(F)c1 [Example 737, 5-{2′-[(2-Amino-1,1-dimethylethyl)sulfonyl]-3-fluorobiphenyl-4-yl}pyrazin-2-amine] | 0.984
7 | Nc1ncc(-c2ccc(-c3ccc(C(F)(F)F)cc3C(=O)N3CCC(O)CC3)cc2F)cn1 [Example 796, [2-[4-(2-Aminopyrimidin-5-yl)-3-fluoro-phenyl]-5-(trifluoromethyl)phenyl]-(4-hydroxy-1-piperidyl)methanone] | 0.391
8 | Nc1ncc(-c2ccc(-c3ccccc3S(=O)(=O)c3ncccn3)cc2F)cn1 [Example 718, 5-[3-Fluoro-2′-(pyrimidin-2-ylsulfonyl)biphenyl-4-yl]pyrimidin-2-amine] | > 10
9 | Nc1cnc(-c2ccc(-c3ccccc3C(=O)N3CC[C@H](O)C3)cc2F)cn1 [Example 771, (3S)-1-{[4′-(5-Aminopyrazin-2-yl)-3′-fluorobiphenyl-2-yl]carbonyl}pyrrolidin-3-ol] | > 10
10 | Nc1cnc(-c2ccc(-c3ccccc3C(=O)N3CCNC(=O)C3)cc2F)cn1 [Example 519, 4-{[4′-(5-Aminopyrazin-2-yl)-3′-fluorobiphenyl-2-yl]carbonyl}piperazin-2-one] | > 10
11 | CC(C)(C#N)S(=O)(=O)c1ccccc1-c1ccc(-c2cnc(N)nc2)c(F)c1 [Example 732, 2-{[4′-(2-Aminopyrimidin-5-yl)-3′-fluorobiphenyl-2-yl]sulfonyl}-2-methylpropanenitrile] | 0.557
12 | Nc1cnc(-c2ccc(-c3ccccc3C(=O)NC3CCOCC3)cc2F)cn1 [Example 756, 4′-(5-Aminopyrazin-2-yl)-3′-fluoro-N-(tetrahydro-2H-pyran-4-yl)biphenyl-2-carboxamide] | > 10
13 | CC(C)(C)NS(=O)(=O)c1ccccc1-c1ccc(-c2ncc3cc[nH]c3n2)c(F)c1 [Example 418, N-tert-Butyl-3′-fluoro-4′-(7H-pyrrolo[2,3-d]pyrimidin-2-yl)biphenyl-2-sulfonamide] | 1.25
14 | Nc1ncc(-c2ccc(-c3ccccc3S(=O)(=O)c3ccncn3)cc2F)cn1 [Example 720, 5-[3-Fluoro-2′-(pyrimidin-4-ylsulfonyl)biphenyl-4-yl]pyrimidin-2-amine] | > 10
15 | Nc1ncc(-c2ccc(-c3cccnc3S(=O)(=O)CCN3CCOCC3)cc2F)cn1 [Example 821, 5-(2-Fluoro-4-(2-((2-morpholinoethyl)sulfonyl)pyridine-3-yl)phenyl)pyrimidin-2-amine formic acid salt] | > 10
16 | Nc1ncc(-c2ccc(-c3ccccc3OC3CCNCC3)cc2F)cn1 [Example 631, 5-[3-Fluoro-2′-(piperidin-4-yloxy)biphenyl-4-yl]pyrimidin-2-amine] | > 10
